The values below come from patent publication US11059815B2, “Synthesis of small molecule histone deacetylase 6 degraders, compounds formed thereby, and pharmaceutical compositions containing them” (Wisconsin Alumni Research Foundation, priority 2018, dated 2021).

The target in the assay is T1, HDAC6 (Homo sapiens, UniProt Q9UBN7).
T1 construct: endogenous in cells; host or cells: MM1S (ATCC CRL-2974)
T1 sequence (Q9UBN7 1-1215): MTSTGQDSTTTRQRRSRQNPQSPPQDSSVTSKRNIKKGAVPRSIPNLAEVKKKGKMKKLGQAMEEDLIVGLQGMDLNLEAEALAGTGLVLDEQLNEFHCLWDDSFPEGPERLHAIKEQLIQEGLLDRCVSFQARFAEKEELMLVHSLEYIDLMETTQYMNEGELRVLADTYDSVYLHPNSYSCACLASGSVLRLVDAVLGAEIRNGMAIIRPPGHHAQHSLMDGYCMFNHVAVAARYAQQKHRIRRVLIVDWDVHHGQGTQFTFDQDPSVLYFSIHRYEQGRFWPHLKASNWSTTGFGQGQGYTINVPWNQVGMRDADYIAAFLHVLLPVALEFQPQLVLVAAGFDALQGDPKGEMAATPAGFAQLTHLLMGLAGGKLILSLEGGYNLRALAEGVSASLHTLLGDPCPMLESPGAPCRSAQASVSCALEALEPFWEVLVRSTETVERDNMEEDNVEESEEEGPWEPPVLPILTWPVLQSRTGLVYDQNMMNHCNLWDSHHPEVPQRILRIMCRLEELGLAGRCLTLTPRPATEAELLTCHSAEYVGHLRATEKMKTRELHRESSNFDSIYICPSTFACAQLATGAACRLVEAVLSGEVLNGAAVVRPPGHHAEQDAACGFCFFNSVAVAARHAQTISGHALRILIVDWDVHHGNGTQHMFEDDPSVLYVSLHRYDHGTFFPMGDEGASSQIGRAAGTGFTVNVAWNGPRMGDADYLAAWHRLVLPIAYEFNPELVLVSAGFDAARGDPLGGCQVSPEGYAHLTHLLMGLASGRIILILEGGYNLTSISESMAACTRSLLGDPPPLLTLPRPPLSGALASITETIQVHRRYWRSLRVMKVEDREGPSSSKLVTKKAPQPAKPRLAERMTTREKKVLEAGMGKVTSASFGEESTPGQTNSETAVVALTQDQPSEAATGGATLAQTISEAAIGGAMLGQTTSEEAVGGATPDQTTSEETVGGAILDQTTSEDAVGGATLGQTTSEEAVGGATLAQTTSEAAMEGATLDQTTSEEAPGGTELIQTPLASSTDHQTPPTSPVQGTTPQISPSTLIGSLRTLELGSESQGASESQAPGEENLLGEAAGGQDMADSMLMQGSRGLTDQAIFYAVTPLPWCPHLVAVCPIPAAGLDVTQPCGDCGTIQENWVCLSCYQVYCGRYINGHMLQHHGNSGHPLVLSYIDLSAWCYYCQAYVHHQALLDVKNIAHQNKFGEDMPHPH
Description: In-cell ELISA of HDAC6 protein level in MM1S cells. It is filed as cell-based. Particulars: 6 h; for inhibition at 0.01 µM / inhibition at 0.1 µM / Dmax: MM1.S; for inhibition at 0.01 µM: 10 nM, n=3, read-out: Degradation (%) 10 nM; for inhibition at 0.01 µM / inhibition at 0.1 µM: 100% minus mean (± SD) relative HDAC6 expression; for inhibition at 0.1 µM: 100 nM, n=3, read-out: Degradation (%) 100 nM; for DC50 / Dmax: 0.1 nM to 1 μM, nonlinear fit, ± SD; for Dmax: read-out: Dmax (Vehicle %). As to the method:
FIG. 9 is a histogram depicting the results of screening of compounds for HDAC6 degradation activity by in-cell ELISA. MM1S cells were treated with compounds at 100 nM (blue bars) or 10 nM (red bars) for 6 h. Data was normalized to vehicle (DMSO)-treated group and the bar graph represents as mean of relative HDAC6 protein level (n=3) with ±SD as error bar. Statistical significance was analyzed by one-way ANOVA. Not significant (ns) P>0.05, *P≤0.05, **P≤0.01, ***P≤0.001, ****P≤0.0001.
FIG. 11 is a graph depicting dose response of selected degrader candidates. MM1S cells were treated for 6 h and analyzed by in-cell ELISA. Data was normalized to vehicle (DMSO)-treated group and dot plot represented as mean relative expression (n=3) with ±SD as error bar. Nonlinear fitting of inhibitor concentration vs. response (three parameters) was generated by GraphPad Prism with R2 from 0.97 to 0.99.
FIG. 15 is a histogram depicting relative HDAC6 expression as a function of linker length for compounds 3a through 3k as described in the Examples section, Part 2. Human MM1S cells were treated with 100 nM degraders for 6 hours and analyzed by in-cell ELISA assay.
FIG. 17 is a dose-response curve for degraders 3j (n=1), 3k (n=12) and 2, at concentrations from 1 nM to 300 nM for 4 h in MM1S. See the Examples, Part 2.
To screen the new series of degraders, an in-cell ELISA assay was developed and validated. The compounds were treated at 100 nM and 10 nM in MM1S cells for 6 h. Resulting cells were then fixed and analyzed by in-cell ELISA. […] Degraders including 1 at 100 nM degraded 73.5% to 85.0% of HDAC6 with minor difference. At 10 nM concentration of compounds, obvious structure-activity-relationship (SAR) was observed. […] For example, 12d, 12h, 12i, 12o and 12p all achieved about 70% degradation. Among the C4-linked series, 12d with medium length linker (5+1) achieved most degradation in sub-series 12a-e (m=1). […] Among C5-linked series, the potency of sub-series 12l-p (m=1) increased with the linker length. […] It appeared that both the distance and linking positions contributed to the degradation efficiency. The rigid triazole ring in the middle of the linker likely modulated the plasticity of degrader-bridged ternary complex.
The amount of cellular HDAC6 was measured in response to concentrations of compounds from 0.1 nM to 1 μM. […] The new degraders had single-digit nanomolar DC50, which was about 3 to 5 fold of improvement from 9.12 nM of degrader 1. […] As discussed above, most PROTACs were designed to avoid degrading other proteins except the targeted POIs. However, in these studies, it was hypothesized that HDAC6 degraders with IKZF degradation will have enhanced anti-proliferation effect MM1S cells.
MM1S cells were harvested and plated with 5×10^5 cells in 100 μL media per well 96-wells plate. After overnight seeding, 25 μL media containing 5× dosing concentration of the compounds or vehicle was added to each well. After 6-hour treatment at 37° C. in a humidified 5% CO2 atmosphere, cells were fixed by adding 125 μL 8% formaldehyde in TBS buffer (137 mM NaCl, 25 mM Tris, 2.7 mM potassium chloride, pH 7.6) and incubated at room temperature (RT) for 15 minutes. Removal of fixing solution was followed by once rinse and twice washes with TBS-T washing buffer (137 mM NaCl, 20 mM Tris, 0.1% Tween, pH 7.6). Cells were then permeabilized by adding 100 μL 0.1% Triton-X in TBS and incubated at RT for 15 minutes. Removal of permeabilizing solution was followed by once rinse and once wash with TBS-T. Cellular endogenous peroxidases were quenched by adding 100 μL 1% H2O2 in TBS and incubation at RT for 20 minutes. Removal of quenching solution was followed by once rinse and once wash with TBS-T. Non-specific binding sites were blocked by adding […] 5% BSA in TBS-T (with 0.02% NaN3) and incubation at 4° C. overnight. […]

On to `CCCCN(Cc1ccc(C(=O)NO)cc1)C(=O)Nc1ccc(OCCn2cc(CCCNc3ccc4c(c3)C(=O)N(C3CCC(=O)NC3=O)C4=O)nn2)cc1` (stereo not drawn) [Compound 12q, 4-((1-butyl-3-(4-(2-(4-(3-((2-(2,6-dioxopiperidin-3-yl)-1,3-dioxoisoindolin-5-yl)amino)propyl)-1H-1,2,3-triazol-1-yl)ethoxy)phenyl)ureido)methyl)-N-hydroxybenzamide], for which the inhibition at 0.01 µM is 47.2 ± 4.8% and the inhibition at 0.1 µM came out at 80.4 ± 0.3%.
As to `CCCCN(Cc1ccc(C(=O)NO)cc1)C(=O)Nc1ccc(OCCCCCn2cc(CNc3ccc4c(c3)C(=O)N(C3CCC(=O)NC3=O)C4=O)nn2)cc1` (stereo not drawn) [Compound 12o, 4-((1-butyl-3-(4-((5-(4-(((2-(2,6-dioxopiperidin-3-yl)-1,3-dioxoisoindolin-5-yl)amino)methyl)-1H-1,2,3-triazol-1-yl)pentyl)oxy)phenyl)ureido)methyl)-N-hydroxybenzamide], the inhibition at 0.01 µM is ~70% and the inhibition at 0.1 µM turned out to be 84.7 ± 1%.
For `CCCCN(Cc1ccc(C(=O)NO)cc1)C(=O)Nc1ccc(OCCCCCCn2cc(CNc3cccc4c3C(=O)N(C3CCC(=O)NC3=O)C4=O)nn2)cc1` (stereo not drawn) [Compound 12e, 4-((1-butyl-3-(4-((6-(4-(((2-(2,6-dioxopiperidin-3-yl)-1,3-dioxoisoindolin-4-yl)amino)methyl)-1H-1,2,3-triazol-1-yl)hexyl)oxy)phenyl)ureido)methyl)-N-hydroxybenzamide], in that order: 66.1 ± 1.1% and 77.8 ± 1.7%.
For `CCCCN(Cc1ccc(C(=O)NO)cc1)C(=O)Nc1ccc(OCCCn2cc(CCCNc3cccc4c3C(=O)N(C3CCC(=O)NC3=O)C4=O)nn2)cc1` (stereo not drawn) [Compound 12j, 4-((1-butyl-3-(4-(3-(4-(3-((2-(2,6-dioxopiperidin-3-yl)-1,3-dioxoisoindolin-4-yl)amino)propyl)-1H-1,2,3-triazol-1-yl)propoxy)phenyl)ureido)methyl)-N-hydroxybenzamide], in that order: 45.6 ± 1.6% and 77.3 ± 1.5%.
As for `CCCCN(Cc1ccc(C(=O)NO)cc1)C(=O)Nc1ccc(OCCn2cc(CCNc3cccc4c3C(=O)N(C3CCC(=O)NC3=O)C4=O)nn2)cc1` (stereo not drawn) [Compound 12f, 4-((1-butyl-3-(4-(2-(4-(2-((2-(2,6-dioxopiperidin-3-yl)-1,3-dioxoisoindolin-4-yl)amino)ethyl)-1H-1,2,3-triazol-1-yl)ethoxy)phenyl)ureido)methyl)-N-hydroxybenzamide], the inhibition at 0.01 µM worked out at 49.3 ± 0.6% and the inhibition at 0.1 µM amounted to 81.8 ± 0.9%.
`CCCCN(Cc1ccc(C(=O)NO)cc1)C(=O)Nc1ccc(OCCn2cc(CCCNc3cccc4c3C(=O)N(C3CCC(=O)NC3=O)C4=O)nn2)cc1` (stereo not drawn) [Compound 12i, 4-((1-butyl-3-(4-(2-(4-(3-((2-(2,6-dioxopiperidin-3-yl)-1,3-dioxoisoindolin-4-yl)amino)propyl)-1H-1,2,3-triazol-1-yl)ethoxy)phenyl)ureido)methyl)-N-hydroxybenzamide]: the DC50 amounted to 2.54 ± 0.32 nM, the Dmax is 86.3 ± 1.67%, the inhibition at 0.01 µM is ~70% and the inhibition at 0.1 µM was 83.1 ± 1%.
On to `CCCCN(Cc1ccc(C(=O)NO)cc1)C(=O)Nc1ccc(OCCn2cc(CNc3ccc4c(c3)C(=O)N(C3CCC(=O)NC3=O)C4=O)nn2)cc1` (stereo not drawn) [Compound 12l, 4-((1-butyl-3-(4-(2-(4-(((2-(2,6-dioxopiperidin-3-yl)-1,3-dioxoisoindolin-5-yl)amino)methyl)-1H-1,2,3-triazol-1-yl)ethoxy)phenyl)ureido)methyl)-N-hydroxybenzamide], for which the inhibition at 0.01 µM was found to be 57.1 ± 1.4% and the inhibition at 0.1 µM is 81.4 ± 0.6%.
In the case of `CCCCN(Cc1ccc(C(=O)NO)cc1)C(=O)Nc1ccc(OCCCCn2cc(CNc3cccc4c3C(=O)N(C3CCC(=O)NC3=O)C4=O)nn2)cc1` (stereo not drawn) [Compound 12c, 4-((1-butyl-3-(4-(4-(4-(((2-(2,6-dioxopiperidin-3-yl)-1,3-dioxoisoindolin-4-yl)amino)methyl)-1H-1,2,3-triazol-1-yl)butoxy)phenyl)ureido)methyl)-N-hydroxybenzamide], the inhibition at 0.01 µM amounted to 64.3 ± 3.2% and the inhibition at 0.1 µM came to 85 ± 1.2%.
For `CCCCN(Cc1ccc(C(=O)NO)cc1)C(=O)Nc1ccc(OCCCCn2cc(CCCNc3cccc4c3C(=O)N(C3CCC(=O)NC3=O)C4=O)nn2)cc1` (stereo not drawn) [Compound 12k, 4-((1-butyl-3-(4-(4-(4-(3-((2-(2,6-dioxopiperidin-3-yl)-1,3-dioxoisoindolin-4-yl)amino)propyl)-1H-1,2,3-triazol-1-yl)butoxy)phenyl)ureido)methyl)-N-hydroxybenzamide], in that order: 50.9 ± 2.2% and 75.7 ± 0.8%.
Consider `CCCCN(Cc1ccc(C(=O)NO)cc1)C(=O)Nc1ccc(OCCn2cc(CNc3cccc4c3C(=O)N(C3CCC(=O)NC3=O)C4=O)nn2)cc1` (stereo not drawn) [Compound 12a, 4-((1-butyl-3-(4-(2-(4-(((2-(2,6-dioxopiperidin-3-yl)-1,3-dioxoisoindolin-4-yl)amino)methyl)-1H-1,2,3-triazol-1-yl)ethoxy)phenyl)ureido)methyl)-N-hydroxybenzamide], for which the DC50 stood at 3.41 ± 0.52 nM, the Dmax turned out to be 88 ± 2.23%, the inhibition at 0.01 µM turned out to be 62.1 ± 1% and the inhibition at 0.1 µM is 81.3 ± 2.3%.
